The values that follow are results of earlier work, collected in patent US20150101082A1, “PROCESSING SEEDS BY COLD PLASMA TREATMENT TO REDUCE AN APPARENT CONTACT ANGLE OF SEEDS COAT SURFACE” (priority 2012, published 2015).

Molecules are shown by their SMILES.

Data set [1] concerns rats. Conditions: oral.
Data set [2] relates to mice. Conditions: oral.
The subject of data set [3] is mice. The settings on record: inhalation, 7 hours.

With `NN` [Hydrazine], the LD50 in data set [1] and in data set [2] was roughly 60 mg/kg throughout. Consider `Nc1ccccc1` [Aniline], for which the median lethal concentration (LC50) (usually the concentration that kills 50% of the test population) in data set [3] is listed as 175 ppm.
